Patent US9782379B2, “Use of protectin DX for the stimulation of muscular IL-6 secretion” (Universite Laval, priority 2013, dated 2017)

Assays:
[1] = system: J774A.1 murine macrophages; assay: macrophages treated with palmitate in vitro; type: cell-based; settings: 400 μM palmitate, 16 hours
Protocol: J774A.1 murine macrophages were maintained in DMEM (10% FBS) until 80% confluence. A 2 mM palmitate solution or methanol vehicle in alpha-MEM (12% BSA) was added to fresh DMEM (10% FBS) to give a final concentration of 400 μM palmitate. Concomitantly, PDX, RvE1, RvD1 (10 or 100 nM, Cayman chemical), or vehicle was added to the media. After 16 hours, the media was collected and cells were lysed as described for the studies in C2C12 myotubes.
(§1) Snap frozen gastrocnemius muscle and liver from mice were pulverized in liquid nitrogen then lysed overnight at 4° C. in the lysis buffer described for the C2C12 myotube experiments. Immunoblotting of myotube, macrophage, liver and muscle lysates was then performed as previously described^5. Briefly, 50 ug of protein was loaded onto a 7.5% acrylamide gel, subjected to SDS-PAGE then transferred onto nitrocellulose membranes. Membranes were then blocked and probed with the appropriate antibodies. Antibodies for p-Akt ser473, p-JNK thr183/tyr185, JNK, p-AMPK thr172, AMPK, p-STAT-3 ser727 and STAT-3 were obtained from Cell Signaling Technology (MA, USA). Antibodies for total Akt and iNOS were from Santa Cruz Biotechnology (CA, USA) and BD Transduction Laboratories™ (Canada) respectively.
Chemokines and cytokines were quantified in macrophage media, or mouse plasma using the MILLIPLEX™ MAP mouse cytokine/chemokine kit (Millipore Corporation, MA, USA). Nitrite accumulation in media was determined by Greiss assay as previously described^25. Plasma insulin levels were assessed by RIA (Linco, MI, USA). FFA were measured using an enzymatic colorimetric assay (Wako Chemicals, VA, USA). Skeletal muscle and liver IL-6 were quantified using the mouse IL-6 ELISA kit from R&D systems. Total plasma adiponectin was determined using the ELISA from ALPCO.

[2] = system: wild-type (WT) C57BL/6J control mice; assay: second paired saline/lipid infusion 2.5 mU/kg/min hyperinsulinemic-euglycemic clamp, wild-type mice; type: in vivo
Protocol: For the second paired lipid infusion HIE clamp study, 10 week old male B6.129S2-ll6^tmkopf/J (IL-6 KO) and control C57BL/6J (WT) mice from Jackson Labs were used. Mice from each genetic background were randomly assigned to saline-vehicle, saline-PDX, lipid-vehicle and lipid-PDX groups. The lipid-infusion clamp study was performed as described above, except the clamp was performed with a 2.5 mU·kg^−1·min^−1 insulin infusion as per^29.
To confirm the involvement of IL-6 in the beneficial effects of PDX we performed a second round of paired lipid infusion hyperinsulinemic-euglycemic clamp studies in IL-6 null (KO) mice alongside wild-type (WT) C57BL/6J control mice. Saline-infused mice treated with PDX were added to the study to ascertain whether PDX also improves glucose metabolism in insulin-sensitive mice. To ensure detection of potential differences between insulin-sensitive saline-infused animals we performed 2.5mU/kg/min rather than 4 mU/kg/min clamps.

lean C57BL/6J mice = assay: paired 6 h lipid infusion and 4 mU/kg hyperinsulinemic-euglycemic clamp; type: in vivo
Protocol: 14-week old male C57BL/6J mice from Jackson Labs were used for the first paired lipid infusion hyperinsulinemic-euglycemic clamp study. These mice were placed on a standard laboratory chow diet with free access to food and water and kept in a 12 h light 12 h dark cycle at the Laval University hospital research centre animal facility. Mice were randomly assigned to saline, lipid or lipid+PDX groups. Five days prior to the experiment, mice were anesthetized and PE-10 catheters (Harvard Apparatus, QC, Canada) were inserted into the left common carotid artery and the right jugular vein for blood sampling and infusions respectively. Mice were fasted for 5 h leading up to the protocol. Immediately prior to the start of the lipid infusion, PDX (1 ug) or an equal volume of vehicle was administered via the jugular catheter to each group. Mice were then infused for 6 h with saline (5ml·kg^−1·h^−1) or lipid (20% intralipid emulsion (Baxter, ON, Canada) 5ml·kg^−1·h^−1 with 20 IU·ml^−1 heparin (LEO pharma, ON, Canada)). 2.5h into the infusion PDX (1 ug) or vehicle was again administered to the appropriate groups and the HIE clamp was initiated as previously described ^8,27. The clamp protocol consisted of a 90 min tracer equilibration period followed by a 120 min experimental period. A 5-μCi bolus of [3-^3H]glucose was given at the start of the tracer equilibration period followed by a 0.05-μCi/min infusion for 90 min. Blood samples were drawn for the assessment of glycemia, insulin and glucose turnover levels. Following the 90 min tracer equilibration period the clamp began with a primed-continuous infusion of human insulin (16 mU/kg bolus followed by 4 mU·kg^−1·min^−1, Humulin R; Eli Lilly, Indianapolis, Ind.). The [3-^3H]glucose infusion was increased to 0.2 μCi/min for the remainder of the experiment. Euglycemia (6.0-7.0 mM) was maintained during clamps by infusing 20% dextrose as necessary. Blood samples were taken continuously to determine glucose specific activity as well as insulin concentrations. Mice received saline-washed erythrocytes from donor mice throughout the experimental period (5-6 μl·min-1) to prevent a fall of ≧5% hematocrit. HGP and Rd were determined using Mari's non-steady-state equations for a two-compartmental model^28.
as §1
RNA was extracted from C2C12 myotubes using an RNeasy® mini kit from QIAGEN. RNA from homogenized liver tissue was extracted using an RNeasy® fibrous tissue mini kit from QIAGEN. RNA was then reverse transcribed to cDNA using the high-capacity cDNA reverse transcription kit from applied biosystems. Real-time PCR for Ppargc1, Pck1, G6Pc, and GAPDH was then performed using Taqman assay on demand probes and primers from Applied Biosystems in a CFX96 real-time system from BIO-RAD. The relative expression of genes of interest was then determined by normalization to the housekeeping gene GAPDH using the comparative CT method for relative gene expression^30.
Chemokines and cytokines were quantified in macrophage media, or mouse plasma using the MILLIPLEX™ MAP mouse cytokine/chemokine kit (Millipore Corporation, MA, USA). Nitrite accumulation in media was determined by Greiss assay as previously described^25. […]

[3] = saline and lipid-infused WT mice, P<0.05

## CC/C=C\C[C@H](O)/C=C/C=C\C=C\[C@@H](O)C/C=C\C/C=C\CCC(=O)O [PDX, 10S,17S-dihydroxy-docosa-4Z,7Z,11E,13Z,15E,19Z-hexaeonic acid]
[1]
  iNOS and JNK activation: effectively suppresses
  lipid-induced IL-6 production: actually suppresses
[1]; PDX 10 or 100 nM
  lipid-induced secretion of CCL2/MCP-1, CCL5/RANTES, TNFα, IL-2, and IL-10: effectively suppresses
[2]; insulin sensitive saline infused mice
  Akt phosphorylation: without raising
[2]; lipid-infused WT mice, P<0.001
  hepatic insulin action: improved
[2]; lipid-infused WT mice, P<0.01, P<0.05, p<0.001
  suppression of Ppargc1, Pck1 and G6Pc (liver mRNA): significantly improved the suppression
[2]; lipid-infused WT mice, P<0.05
  peripheral insulin action: improved
[2]; [3]
  GIR: significantly enhanced
  pre-clamp glycemia: significant fall
[2]; saline-infused WT mice, P<0.01
  transcriptional repression of PEPCK (liver): additive effect
[2]; saline-infused WT mice, P<0.05
  hepatic insulin action: superior hepatic insulin action
[2]; saline-infused WT mice, P=0.0614
  suppression of G6Pc (liver): tended to improve
[2]; saline-infused mice
  peripheral glucose disposal: did not increase
  suppression of PGC-1α (liver mRNA): not associated with further suppression
Lean C57BL/6J mice; P<0.05
  phosphorylation of AMPK on Thr172 in muscle: robust phosphorylation
  phosphorylation of hepatic STAT-3 on Ser727: enhancing
Lean C57BL/6J mice; PDX 1 ug i.v. immediately prior to and 2.5 h into 6 h lipid infusion, vs saline and lipid-treated animals, P<0.01
  pre-clamp glycemia: significant lowering
Lean C57BL/6J mice; PDX 1 ug i.v. x2, lipid-infused
  peripheral insulin action: partial restoration
Lean C57BL/6J mice; PDX 1 ug i.v. x2, lipid-infused, P<0.001
  lipid-induced decline in whole-body insulin sensitivity (glucose infusion rate, GIR): completely prevented the lipid-induced decline
Lean C57BL/6J mice; PDX 1 ug i.v. x2, lipid-infused, significantly greater than saline-infused mice, P<0.05
  hepatic insulin action: markedly increased
Lean C57BL/6J mice; both lipid-infused groups (with and without PDX)
  adiponectin in plasma: similarly reduced levels
Lean C57BL/6J mice; expression profile compared with plasma IL-6
  IL-6 protein expression in skeletal muscle: closely resembled that of plasma
Lean C57BL/6J mice; liver and skeletal muscle, immunoblot
  phosphorylation of Akt on Ser473: confirmed the improved insulin action
Lean C57BL/6J mice; liver, immunoblot
  JNK activation (phosphorylation on Thr183/Tyr185): prevents
Lean C57BL/6J mice; mouse, in vivo
  liver IL-6 levels: no significant effect
  suppression of PGC-1α and PEPCK in liver (mRNA): enhancing
Lean C57BL/6J mice; muscle and liver, immunoblot
  lipid-mediated induction of iNOS: represses
Lean C57BL/6J mice; plasma, lipid-infused
  lipid-induced secretion of cytokines TNFα, IFNγ, IL-1β, IL-2 and IL-17: strongly suppresses
  lipid-induced secretion of proinflammatory chemokines CCL2/MCP-1 and CCL5/RANTES: strongly suppresses
Lean C57BL/6J mice; plasma, P<0.001
  increase in IL-6 beyond that induced by lipid infusion alone: ~7 fold
Lean C57BL/6J mice; tendency, P=0.08
  suppression of G6Pase in liver (mRNA): did not reach significance
